The numbers were not newly measured in article PMC9851200, “Multiparameter phenotypic screening for endogenous TFEB and TFE3 translocation identifies novel chemical series modulating lysosome function” (Autophagy, 2022), which cites them from elsewhere.

Parameters in all cases: method as in original PKIS2 published data
The target of data set [1] is kinases (KINOMEscan panel) (Homo sapiens, UniProt Q00532). Particulars: CDKL1; Published KINOMEscan; ref original PKIS2 published data; cited from earlier work.
For data set [2], the target named is T1, kinases (KINOMEscan panel) (Homo sapiens, UniProt P29320).
T1 sequence (P29320 21-983): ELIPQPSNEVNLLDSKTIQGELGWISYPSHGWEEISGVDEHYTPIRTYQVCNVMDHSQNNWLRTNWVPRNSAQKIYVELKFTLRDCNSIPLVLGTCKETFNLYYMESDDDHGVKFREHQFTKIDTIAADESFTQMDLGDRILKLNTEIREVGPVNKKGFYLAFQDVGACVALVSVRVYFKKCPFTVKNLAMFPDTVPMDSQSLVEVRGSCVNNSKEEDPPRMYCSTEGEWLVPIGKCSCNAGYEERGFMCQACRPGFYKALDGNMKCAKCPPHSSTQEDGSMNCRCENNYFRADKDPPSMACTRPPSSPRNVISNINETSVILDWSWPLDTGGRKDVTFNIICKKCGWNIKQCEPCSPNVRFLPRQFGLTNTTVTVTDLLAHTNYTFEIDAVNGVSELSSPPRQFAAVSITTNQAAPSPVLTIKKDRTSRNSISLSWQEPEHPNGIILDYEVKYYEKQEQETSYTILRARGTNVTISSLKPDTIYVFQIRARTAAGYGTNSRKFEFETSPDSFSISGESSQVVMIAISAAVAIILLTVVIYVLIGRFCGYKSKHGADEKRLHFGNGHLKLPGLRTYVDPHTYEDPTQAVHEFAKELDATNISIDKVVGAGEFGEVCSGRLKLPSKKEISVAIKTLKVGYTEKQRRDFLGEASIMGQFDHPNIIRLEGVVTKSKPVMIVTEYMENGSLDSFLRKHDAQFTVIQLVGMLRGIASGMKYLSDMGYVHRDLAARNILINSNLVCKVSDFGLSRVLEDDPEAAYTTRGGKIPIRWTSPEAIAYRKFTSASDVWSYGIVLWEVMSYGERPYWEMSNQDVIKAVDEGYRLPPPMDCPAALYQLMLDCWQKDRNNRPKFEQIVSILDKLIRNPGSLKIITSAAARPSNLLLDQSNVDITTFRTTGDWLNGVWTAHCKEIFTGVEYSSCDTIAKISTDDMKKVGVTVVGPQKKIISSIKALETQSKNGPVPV
Particulars: kinase EPHA3; Published KINOMEscan; ref original PKIS2 published data; cited from earlier work.

Data set [3] addresses kinases (KINOMEscan panel) (Homo sapiens, UniProt P22694). Particulars: PRKACB; Published KINOMEscan; ref original PKIS2 published data; cited from earlier work.
For data set [4], the target named is kinases (KINOMEscan panel) (Homo sapiens, UniProt Q86Z02). The conditions noted are these: HIPK1; Published KINOMEscan; ref original PKIS2 published data; cited from earlier work.
Data set [5] concerns the target kinases (KINOMEscan panel) (Homo sapiens, UniProt Q16512). Particulars: Published KINOMEscan; ref original PKIS2 published data; cited from earlier work.
Data set [6] concerns the target kinases (KINOMEscan panel) (Homo sapiens, UniProt Q96SB4). The conditions noted are these: kinase SRPK1; Published KINOMEscan; ref original PKIS2 published data; cited from earlier work.
The target of data set [7] is T2, kinases (KINOMEscan panel) (Homo sapiens, UniProt Q9UF33).
T2 sequence (Q9UF33 23-1036): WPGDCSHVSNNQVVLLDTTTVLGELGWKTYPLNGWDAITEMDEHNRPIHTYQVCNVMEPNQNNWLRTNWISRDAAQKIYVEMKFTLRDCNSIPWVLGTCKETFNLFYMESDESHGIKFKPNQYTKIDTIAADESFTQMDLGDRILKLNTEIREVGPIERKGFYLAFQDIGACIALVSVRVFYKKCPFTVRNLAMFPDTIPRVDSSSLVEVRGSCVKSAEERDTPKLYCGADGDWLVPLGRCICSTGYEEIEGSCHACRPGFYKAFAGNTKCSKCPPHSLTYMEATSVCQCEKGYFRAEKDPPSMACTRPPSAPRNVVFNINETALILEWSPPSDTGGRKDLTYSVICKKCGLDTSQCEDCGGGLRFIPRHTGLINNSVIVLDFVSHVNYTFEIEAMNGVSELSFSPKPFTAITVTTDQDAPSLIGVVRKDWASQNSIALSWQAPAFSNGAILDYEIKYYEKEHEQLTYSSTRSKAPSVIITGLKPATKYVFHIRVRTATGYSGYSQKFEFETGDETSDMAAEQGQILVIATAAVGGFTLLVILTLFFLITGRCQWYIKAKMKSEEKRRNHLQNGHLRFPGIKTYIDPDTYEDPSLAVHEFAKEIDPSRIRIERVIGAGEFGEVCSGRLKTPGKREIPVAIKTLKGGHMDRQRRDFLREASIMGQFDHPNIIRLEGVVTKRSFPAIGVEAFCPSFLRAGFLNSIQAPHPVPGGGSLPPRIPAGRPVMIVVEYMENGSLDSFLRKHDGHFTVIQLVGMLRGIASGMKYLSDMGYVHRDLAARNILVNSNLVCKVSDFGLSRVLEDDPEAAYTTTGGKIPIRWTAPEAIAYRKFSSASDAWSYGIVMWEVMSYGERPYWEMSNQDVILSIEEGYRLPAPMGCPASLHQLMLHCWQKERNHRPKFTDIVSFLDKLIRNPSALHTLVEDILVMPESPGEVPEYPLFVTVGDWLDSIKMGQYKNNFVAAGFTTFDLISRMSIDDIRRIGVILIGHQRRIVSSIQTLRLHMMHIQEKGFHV
Particulars: kinase EPHA6; Published KINOMEscan; ref original PKIS2 published data; cited from earlier work.

Sequence of kinases (KINOMEscan panel) (Homo sapiens, UniProt Q16512) (Q16512 whole entry): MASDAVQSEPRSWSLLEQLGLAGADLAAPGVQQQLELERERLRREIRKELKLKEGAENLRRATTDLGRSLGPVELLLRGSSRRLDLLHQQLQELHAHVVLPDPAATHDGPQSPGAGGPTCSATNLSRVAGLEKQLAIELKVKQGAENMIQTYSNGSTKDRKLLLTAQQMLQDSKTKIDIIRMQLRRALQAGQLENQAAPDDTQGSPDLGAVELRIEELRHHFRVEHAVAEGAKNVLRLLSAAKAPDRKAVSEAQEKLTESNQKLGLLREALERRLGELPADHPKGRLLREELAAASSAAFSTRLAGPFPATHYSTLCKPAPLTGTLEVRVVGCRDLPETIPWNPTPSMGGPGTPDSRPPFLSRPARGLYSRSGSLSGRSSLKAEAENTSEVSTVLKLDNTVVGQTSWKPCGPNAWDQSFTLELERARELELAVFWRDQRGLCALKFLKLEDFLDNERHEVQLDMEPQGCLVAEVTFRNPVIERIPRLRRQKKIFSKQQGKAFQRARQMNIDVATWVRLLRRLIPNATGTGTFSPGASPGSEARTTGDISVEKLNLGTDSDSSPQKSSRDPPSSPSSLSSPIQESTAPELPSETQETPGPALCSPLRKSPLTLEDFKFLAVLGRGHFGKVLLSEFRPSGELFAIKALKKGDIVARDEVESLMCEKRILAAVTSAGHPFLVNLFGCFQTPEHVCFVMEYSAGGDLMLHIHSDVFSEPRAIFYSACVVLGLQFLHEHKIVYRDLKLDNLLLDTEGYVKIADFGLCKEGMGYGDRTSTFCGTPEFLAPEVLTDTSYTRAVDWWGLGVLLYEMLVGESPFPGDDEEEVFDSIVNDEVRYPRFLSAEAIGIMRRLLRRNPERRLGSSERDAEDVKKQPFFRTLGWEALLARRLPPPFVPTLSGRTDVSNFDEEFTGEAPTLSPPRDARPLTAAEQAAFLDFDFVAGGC
Sequence of kinases (KINOMEscan panel) (Homo sapiens, UniProt Q86Z02) (Q86Z02 whole entry): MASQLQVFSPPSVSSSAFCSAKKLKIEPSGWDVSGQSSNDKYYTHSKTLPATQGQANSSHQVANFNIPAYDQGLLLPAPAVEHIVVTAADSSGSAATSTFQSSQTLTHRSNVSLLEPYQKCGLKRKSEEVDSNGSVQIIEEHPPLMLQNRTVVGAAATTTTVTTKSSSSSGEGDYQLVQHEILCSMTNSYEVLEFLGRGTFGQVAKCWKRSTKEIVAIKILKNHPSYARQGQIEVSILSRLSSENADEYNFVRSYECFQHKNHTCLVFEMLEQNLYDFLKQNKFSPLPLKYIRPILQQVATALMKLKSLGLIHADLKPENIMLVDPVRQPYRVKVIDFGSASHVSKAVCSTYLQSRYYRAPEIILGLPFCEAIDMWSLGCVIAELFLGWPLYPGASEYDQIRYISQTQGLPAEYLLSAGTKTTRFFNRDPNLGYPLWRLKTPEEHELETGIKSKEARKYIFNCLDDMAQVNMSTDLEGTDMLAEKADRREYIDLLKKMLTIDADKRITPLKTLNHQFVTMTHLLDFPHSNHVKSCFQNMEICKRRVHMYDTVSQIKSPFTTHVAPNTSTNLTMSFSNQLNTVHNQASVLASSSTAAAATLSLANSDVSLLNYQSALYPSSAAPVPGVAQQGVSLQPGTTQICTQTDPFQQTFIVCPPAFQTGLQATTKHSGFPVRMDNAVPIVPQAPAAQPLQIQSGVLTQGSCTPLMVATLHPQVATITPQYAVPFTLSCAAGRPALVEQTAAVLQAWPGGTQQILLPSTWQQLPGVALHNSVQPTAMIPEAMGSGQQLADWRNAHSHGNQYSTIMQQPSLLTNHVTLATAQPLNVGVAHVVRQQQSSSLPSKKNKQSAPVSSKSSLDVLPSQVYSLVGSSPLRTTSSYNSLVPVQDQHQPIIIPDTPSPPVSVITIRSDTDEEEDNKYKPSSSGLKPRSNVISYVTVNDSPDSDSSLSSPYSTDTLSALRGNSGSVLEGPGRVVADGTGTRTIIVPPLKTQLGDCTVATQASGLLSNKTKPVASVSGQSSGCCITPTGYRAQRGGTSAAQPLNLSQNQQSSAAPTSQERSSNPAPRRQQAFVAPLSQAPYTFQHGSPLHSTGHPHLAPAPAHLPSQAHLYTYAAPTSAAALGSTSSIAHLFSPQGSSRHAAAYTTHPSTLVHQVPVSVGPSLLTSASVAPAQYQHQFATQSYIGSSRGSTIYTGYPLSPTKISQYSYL
Sequence of kinases (KINOMEscan panel) (Homo sapiens, UniProt Q00532) (Q00532 whole entry): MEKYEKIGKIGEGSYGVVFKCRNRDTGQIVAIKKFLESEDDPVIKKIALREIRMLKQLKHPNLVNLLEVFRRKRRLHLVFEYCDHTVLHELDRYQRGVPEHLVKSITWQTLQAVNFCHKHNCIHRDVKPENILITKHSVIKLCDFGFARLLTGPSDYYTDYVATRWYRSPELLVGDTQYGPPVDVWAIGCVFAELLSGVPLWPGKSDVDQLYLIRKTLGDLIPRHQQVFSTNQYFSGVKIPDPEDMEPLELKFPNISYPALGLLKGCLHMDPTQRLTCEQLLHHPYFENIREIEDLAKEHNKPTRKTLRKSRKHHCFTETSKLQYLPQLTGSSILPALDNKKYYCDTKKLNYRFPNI
Sequence of kinases (KINOMEscan panel) (Homo sapiens, UniProt Q96SB4) (Q96SB4 whole entry): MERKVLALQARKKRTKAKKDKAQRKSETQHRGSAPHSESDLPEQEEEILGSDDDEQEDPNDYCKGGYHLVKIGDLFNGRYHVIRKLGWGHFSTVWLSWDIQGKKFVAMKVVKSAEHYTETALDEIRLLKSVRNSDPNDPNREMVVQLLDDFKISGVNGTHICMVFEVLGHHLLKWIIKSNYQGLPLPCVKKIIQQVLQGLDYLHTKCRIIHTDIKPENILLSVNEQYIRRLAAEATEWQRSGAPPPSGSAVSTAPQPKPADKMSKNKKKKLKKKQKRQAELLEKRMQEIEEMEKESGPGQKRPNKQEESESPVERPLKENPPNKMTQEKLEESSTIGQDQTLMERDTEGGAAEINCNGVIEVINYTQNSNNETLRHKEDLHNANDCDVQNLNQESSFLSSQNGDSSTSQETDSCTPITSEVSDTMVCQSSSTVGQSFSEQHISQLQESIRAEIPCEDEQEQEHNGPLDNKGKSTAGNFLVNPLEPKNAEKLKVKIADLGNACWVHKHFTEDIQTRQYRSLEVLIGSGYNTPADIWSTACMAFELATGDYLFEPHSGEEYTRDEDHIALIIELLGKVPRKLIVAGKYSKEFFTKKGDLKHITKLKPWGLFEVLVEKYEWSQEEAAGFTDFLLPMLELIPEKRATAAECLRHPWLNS

In the case of `Cc1cccc(-c2nc(Nc3ccncc3)c3ccccc3n2)n1` [NK215], the “KINOMEscan CDKL1” value in data set [1] is listed as 47. Also, in data set [2], the “KINOMEscan EPHA3” value is on record as 0. In data set [3], the “KINOMEscan PRKACB” value is listed as 30. The “KINOMEscan HIPK1” value in data set [4] is 41. Moreover, in data set [5], the “KINOMEscan PKN1” value is 0. In data set [6], the “KINOMEscan SRPK1” value is recorded as 0. The “KINOMEscan EPHA6” value in data set [7] is 0.
